According to ChEMBL document CHEMBL1201862, “PubChem BioAssay data set” (2004):
Activity calls are given as the source filed them.

How the values were obtained:
Leucine aminopeptidase = molecular target: T1, Leucine aminopeptidase (Plasmodium falciparum 3D7, UniProt Q8IL11); test: P. falciparum M17LAP inhibitors, primary screen, biochemical, fluorogenic H-Leu-NHMec substrate, 1536-well (AID 1619); assay type: functional
T1 sequence (Q8IL11 whole entry): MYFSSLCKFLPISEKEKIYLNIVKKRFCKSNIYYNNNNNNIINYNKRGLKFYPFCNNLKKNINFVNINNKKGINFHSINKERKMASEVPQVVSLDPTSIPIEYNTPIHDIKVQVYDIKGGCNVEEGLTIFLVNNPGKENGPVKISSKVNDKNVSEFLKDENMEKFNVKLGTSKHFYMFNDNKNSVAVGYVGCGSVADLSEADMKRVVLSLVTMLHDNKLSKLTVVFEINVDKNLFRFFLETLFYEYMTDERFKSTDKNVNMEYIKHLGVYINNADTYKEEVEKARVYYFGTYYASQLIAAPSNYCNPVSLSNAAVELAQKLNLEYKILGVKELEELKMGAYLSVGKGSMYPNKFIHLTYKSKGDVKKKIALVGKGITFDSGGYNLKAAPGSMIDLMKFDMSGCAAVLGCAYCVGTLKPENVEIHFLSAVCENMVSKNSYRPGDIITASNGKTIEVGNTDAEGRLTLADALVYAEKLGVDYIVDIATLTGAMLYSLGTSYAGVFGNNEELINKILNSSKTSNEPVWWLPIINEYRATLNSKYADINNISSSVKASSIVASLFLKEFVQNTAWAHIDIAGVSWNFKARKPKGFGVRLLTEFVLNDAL

Aspartyl aminopeptidase = molecular target: T2, Aspartyl aminopeptidase (Plasmodium falciparum 3D7, UniProt Q8I2J3); test: Counterscreen for inhibitors of M1 and M17 aminopeptidases: QFRET-based biochemical high throughput dose response assay for inhibitors of the Plasmodium falciparum M18 Aspartyl Aminopeptidase (PFM18AAP). [Related PubChem assays: 1619 (Screening assay (M17LAP inhibitors).), 1445 (Screening assay (M1AAP inhibitors).)]
T2 sequence (Q8I2J3 whole entry): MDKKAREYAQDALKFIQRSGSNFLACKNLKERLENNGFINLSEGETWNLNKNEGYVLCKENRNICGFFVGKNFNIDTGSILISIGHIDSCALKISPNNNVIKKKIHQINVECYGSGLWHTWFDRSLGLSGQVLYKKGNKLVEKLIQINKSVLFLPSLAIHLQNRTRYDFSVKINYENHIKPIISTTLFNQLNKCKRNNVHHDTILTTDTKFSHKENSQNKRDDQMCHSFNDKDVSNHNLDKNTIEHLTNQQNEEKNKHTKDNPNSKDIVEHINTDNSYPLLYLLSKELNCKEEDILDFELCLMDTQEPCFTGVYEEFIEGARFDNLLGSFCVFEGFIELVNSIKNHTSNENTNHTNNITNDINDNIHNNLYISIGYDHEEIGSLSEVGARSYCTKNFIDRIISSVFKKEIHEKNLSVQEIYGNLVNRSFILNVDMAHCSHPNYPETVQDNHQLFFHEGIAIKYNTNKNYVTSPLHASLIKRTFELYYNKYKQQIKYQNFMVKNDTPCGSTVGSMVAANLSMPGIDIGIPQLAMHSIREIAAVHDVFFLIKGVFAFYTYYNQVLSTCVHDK

Procathepsin L = Procathepsin L (Homo sapiens, UniProt P07711); test: CTSL1 protease inhibition – biochemical, QFRET, 1536-well, counter-screen for M1/M17 aminopeptidase inhibitor project, dose response (AID 2214)
Chain of Procathepsin L (P07711 whole entry): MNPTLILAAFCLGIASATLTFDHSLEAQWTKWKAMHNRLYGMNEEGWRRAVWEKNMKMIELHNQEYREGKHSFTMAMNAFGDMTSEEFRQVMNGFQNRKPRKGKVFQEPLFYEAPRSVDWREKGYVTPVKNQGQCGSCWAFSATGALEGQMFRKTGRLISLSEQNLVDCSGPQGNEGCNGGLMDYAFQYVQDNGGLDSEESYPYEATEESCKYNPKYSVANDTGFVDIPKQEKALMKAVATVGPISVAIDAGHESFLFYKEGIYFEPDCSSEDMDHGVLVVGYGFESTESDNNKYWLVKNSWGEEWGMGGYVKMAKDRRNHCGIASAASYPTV

[1] = molecular target: Metabotropic glutamate receptor 7 (Homo sapiens, UniProt Q14831); test: potentiation of glutamate EC20 at mGlu7 – cell-based, calcium mobilization, Galpha15, dose response (AID 743384); assay type: functional
Chain of Metabotropic glutamate receptor 7 (Q14831 whole entry): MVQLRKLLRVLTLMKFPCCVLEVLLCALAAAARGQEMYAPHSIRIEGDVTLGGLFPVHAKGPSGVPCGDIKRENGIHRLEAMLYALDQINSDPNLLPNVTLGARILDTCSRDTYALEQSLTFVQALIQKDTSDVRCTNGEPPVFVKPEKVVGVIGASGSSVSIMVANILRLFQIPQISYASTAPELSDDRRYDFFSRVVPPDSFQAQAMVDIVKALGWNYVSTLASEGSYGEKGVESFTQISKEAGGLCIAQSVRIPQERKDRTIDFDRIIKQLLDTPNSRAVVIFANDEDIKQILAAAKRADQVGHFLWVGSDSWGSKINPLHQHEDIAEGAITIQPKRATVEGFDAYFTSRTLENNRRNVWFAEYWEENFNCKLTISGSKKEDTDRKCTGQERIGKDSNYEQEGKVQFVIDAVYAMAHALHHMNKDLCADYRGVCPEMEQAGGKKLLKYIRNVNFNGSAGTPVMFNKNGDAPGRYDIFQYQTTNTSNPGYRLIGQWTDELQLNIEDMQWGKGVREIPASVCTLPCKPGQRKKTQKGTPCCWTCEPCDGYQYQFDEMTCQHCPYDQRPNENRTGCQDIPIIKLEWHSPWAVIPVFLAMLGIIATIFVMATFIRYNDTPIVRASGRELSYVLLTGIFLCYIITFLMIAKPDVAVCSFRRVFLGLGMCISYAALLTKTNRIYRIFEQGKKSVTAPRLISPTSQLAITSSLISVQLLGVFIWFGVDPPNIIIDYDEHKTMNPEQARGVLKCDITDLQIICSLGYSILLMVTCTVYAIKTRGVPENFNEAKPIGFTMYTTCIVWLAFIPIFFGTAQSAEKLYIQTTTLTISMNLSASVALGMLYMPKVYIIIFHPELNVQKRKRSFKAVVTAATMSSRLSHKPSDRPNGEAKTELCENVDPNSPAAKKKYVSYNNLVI

[2] = A549 cell cytotoxicity, dose response, cytotoxicity control, plate reader, cherry-pick, antagonist series (AID 743412); assay type: functional, cell-based
[3] = growth inhibition of yeast DHODH-expressing 3D7 parasites – SYBR Green, dry powder samples, dose response (AID 1159570); assay type: functional, cell-based;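 further: parasite growth measured after 72 hours of compound exposure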
[4] = toxicity to human HepG2 hepatoma cells – cell-based, plate reader, dry powder samples, cytotoxicity control, dose response (AID 1159569); assay type: functional;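 further: inhibitor potency with signal falling toward the positive control level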
[5] = P. falciparum Dd2 growth inhibitors, dose response, SYBR Green, cherry-picked samples (AID 1159567); assay type: functional, cell-based
[6] = Dd2 malaria parasite growth inhibition potency – SYBR Green, dry powder samples, dose response (AID 1159566); assay type: functional, cell-based;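 further: potency for growth inhibition with lower SYBR green DNA signal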
[7] = Plasmodium falciparum Dd2 Sybr green parasite growth Measured in Cell-Based and Microorganism Combination System Using Plate Reader - 2153-01_Inhibitor_Dose_DryPowder_Activity_Set3.; assay type: functional
[8] = growth inhibition of PfATP4-mutant resistant parasites – NITD609-resistant line, SYBR Green, dry powder, dose response (AID 1159571); assay type: functional, cell-based;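 further: parasites synchronized at ring stage by sorbitol before testing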
Genome polyprotein = Genome polyprotein (Hepatitis C virus, UniProt Q2Q167); test: disruption of hepatitis C core self-association – biochemical, TR-FRET, dose response (AID 2159); parameters: species or system Hepacivirus hominis;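 further: blocks dimerization of HCV core protein measured by TR-FRET between tagged core106 pairs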
Chain of Genome polyprotein (Q2Q167 whole entry): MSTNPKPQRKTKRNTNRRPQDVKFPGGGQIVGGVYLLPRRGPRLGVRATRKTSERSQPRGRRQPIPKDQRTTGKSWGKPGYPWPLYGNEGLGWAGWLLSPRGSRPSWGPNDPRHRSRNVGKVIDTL

[9] = molecular target: T3, Mannose-6-phosphate isomerase (Homo sapiens, UniProt P34949); test: MPI enzyme activity inhibition – biochemical, fluorescence intensity, coupled assay, primary screen (AID 1209)
T3 sequence (P34949 whole entry): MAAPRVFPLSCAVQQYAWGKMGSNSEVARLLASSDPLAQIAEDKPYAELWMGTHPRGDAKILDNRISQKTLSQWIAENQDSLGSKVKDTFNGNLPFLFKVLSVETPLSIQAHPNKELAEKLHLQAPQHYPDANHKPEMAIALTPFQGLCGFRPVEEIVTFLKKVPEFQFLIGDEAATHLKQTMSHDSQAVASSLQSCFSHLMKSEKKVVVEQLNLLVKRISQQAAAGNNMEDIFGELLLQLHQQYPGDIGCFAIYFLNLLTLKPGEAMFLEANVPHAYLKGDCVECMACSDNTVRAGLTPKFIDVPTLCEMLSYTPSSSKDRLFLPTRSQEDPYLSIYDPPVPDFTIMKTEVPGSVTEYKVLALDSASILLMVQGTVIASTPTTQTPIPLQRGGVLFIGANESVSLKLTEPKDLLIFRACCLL

[10] = molecular target: Protein-tyrosine kinase 2-beta (Homo sapiens, UniProt Q14289);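 further: potency of inhibitors of PYK2 kinase phosphorylation of poly-GT substrate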
Chain of Protein-tyrosine kinase 2-beta (Q14289 whole entry): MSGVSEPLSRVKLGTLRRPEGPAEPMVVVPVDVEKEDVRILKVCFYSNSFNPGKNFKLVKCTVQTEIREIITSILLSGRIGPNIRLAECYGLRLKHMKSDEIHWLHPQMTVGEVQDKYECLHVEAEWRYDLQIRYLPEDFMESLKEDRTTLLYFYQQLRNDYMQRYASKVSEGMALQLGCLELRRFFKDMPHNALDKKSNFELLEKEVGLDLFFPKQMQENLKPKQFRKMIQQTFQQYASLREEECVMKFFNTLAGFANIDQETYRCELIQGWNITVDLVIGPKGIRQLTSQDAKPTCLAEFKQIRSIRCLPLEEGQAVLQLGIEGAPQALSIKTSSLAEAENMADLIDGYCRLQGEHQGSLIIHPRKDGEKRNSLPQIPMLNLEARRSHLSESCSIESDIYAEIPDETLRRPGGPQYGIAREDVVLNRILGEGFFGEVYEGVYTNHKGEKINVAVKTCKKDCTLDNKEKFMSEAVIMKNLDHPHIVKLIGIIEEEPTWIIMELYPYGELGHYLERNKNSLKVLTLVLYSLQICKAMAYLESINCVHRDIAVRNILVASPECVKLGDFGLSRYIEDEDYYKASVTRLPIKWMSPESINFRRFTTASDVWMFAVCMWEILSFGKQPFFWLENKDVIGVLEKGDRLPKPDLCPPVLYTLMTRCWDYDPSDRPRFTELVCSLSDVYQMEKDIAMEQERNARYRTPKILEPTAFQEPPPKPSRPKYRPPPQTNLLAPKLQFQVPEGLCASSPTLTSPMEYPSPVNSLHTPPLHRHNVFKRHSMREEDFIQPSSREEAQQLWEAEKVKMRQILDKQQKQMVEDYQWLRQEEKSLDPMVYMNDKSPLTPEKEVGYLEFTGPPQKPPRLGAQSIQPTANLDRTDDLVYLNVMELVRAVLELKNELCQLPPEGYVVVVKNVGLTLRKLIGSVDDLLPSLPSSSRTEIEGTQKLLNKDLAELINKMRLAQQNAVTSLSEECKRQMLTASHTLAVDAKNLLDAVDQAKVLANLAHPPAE

Ephrin type-A receptor 4 = Ephrin type-A receptor 4 (Mus musculus, UniProt Q03137); test: EphA4 ligand-binding antagonists – biochemical, colorimetric, mouse EphA4, primary screen (AID 689); assay type: functional
Chain of Ephrin type-A receptor 4 (Q03137 whole entry, the tested form may be a part): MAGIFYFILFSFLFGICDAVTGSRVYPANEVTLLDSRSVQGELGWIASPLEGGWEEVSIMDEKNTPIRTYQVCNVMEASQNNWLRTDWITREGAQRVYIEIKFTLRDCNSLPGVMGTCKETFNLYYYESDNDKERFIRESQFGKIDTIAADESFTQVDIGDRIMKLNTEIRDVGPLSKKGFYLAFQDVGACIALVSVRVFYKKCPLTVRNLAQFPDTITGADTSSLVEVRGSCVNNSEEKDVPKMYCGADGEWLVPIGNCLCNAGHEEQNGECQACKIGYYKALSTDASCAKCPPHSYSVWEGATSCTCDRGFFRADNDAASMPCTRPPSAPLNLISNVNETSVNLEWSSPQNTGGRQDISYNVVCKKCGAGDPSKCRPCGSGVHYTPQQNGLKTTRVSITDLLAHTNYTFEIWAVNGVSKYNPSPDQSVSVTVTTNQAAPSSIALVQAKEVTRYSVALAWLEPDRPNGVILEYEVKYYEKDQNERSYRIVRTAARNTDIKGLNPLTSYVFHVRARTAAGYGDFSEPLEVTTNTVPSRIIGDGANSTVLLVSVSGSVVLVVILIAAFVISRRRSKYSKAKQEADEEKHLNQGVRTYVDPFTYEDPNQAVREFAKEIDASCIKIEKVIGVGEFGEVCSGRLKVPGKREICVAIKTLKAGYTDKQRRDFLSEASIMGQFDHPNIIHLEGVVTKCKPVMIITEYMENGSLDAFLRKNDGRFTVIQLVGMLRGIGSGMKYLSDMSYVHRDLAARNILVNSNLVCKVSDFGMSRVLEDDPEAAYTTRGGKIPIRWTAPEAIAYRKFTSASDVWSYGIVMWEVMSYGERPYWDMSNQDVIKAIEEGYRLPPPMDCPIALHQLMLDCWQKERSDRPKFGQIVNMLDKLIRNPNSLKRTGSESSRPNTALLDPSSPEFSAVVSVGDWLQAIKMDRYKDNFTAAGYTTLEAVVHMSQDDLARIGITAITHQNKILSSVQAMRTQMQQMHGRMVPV

Estrogen receptor = molecular target: T4, Estrogen receptor (Homo sapiens, UniProt P03372); test: ERα coactivator recruitment enhancers – biochemical, TR-FRET, ERα LBD, dose response (AID 737)
T4 sequence (P03372 whole entry): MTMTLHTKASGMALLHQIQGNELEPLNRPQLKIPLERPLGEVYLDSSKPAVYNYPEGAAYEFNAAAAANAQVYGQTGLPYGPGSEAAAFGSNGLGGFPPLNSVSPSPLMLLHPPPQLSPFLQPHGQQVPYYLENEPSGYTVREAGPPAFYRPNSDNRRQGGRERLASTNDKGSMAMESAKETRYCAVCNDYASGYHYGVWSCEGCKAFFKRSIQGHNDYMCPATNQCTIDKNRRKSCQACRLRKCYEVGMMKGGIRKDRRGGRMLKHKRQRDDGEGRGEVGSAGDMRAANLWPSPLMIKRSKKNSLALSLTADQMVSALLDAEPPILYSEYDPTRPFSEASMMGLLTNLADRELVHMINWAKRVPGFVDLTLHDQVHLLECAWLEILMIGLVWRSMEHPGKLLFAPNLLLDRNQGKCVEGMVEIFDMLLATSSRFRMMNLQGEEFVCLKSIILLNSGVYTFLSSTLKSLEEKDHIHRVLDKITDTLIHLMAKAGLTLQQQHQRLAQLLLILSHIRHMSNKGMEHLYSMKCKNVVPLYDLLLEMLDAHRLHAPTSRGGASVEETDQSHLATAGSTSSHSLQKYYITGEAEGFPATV

[11] = molecular target: Solute carrier family 12 member 2/member 5 (Homo sapiens, UniProt P55011+Q9H2X9); test: KCC2 and NKCC1 inhibition by rubidium flux, cell-based, NKCC1 counter-screen (AID 1734); assay type: functional, HEK293
Estrogen receptor beta [12] = molecular target: T5, Estrogen receptor beta (Homo sapiens, UniProt Q92731);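 further: recombinant ER-beta bound to coactivator SRC1 peptide in presence of estradiol agonist; inhibitors block coactivator peptide binding and lower the FRET signal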
T5 sequence (Q92731 whole entry): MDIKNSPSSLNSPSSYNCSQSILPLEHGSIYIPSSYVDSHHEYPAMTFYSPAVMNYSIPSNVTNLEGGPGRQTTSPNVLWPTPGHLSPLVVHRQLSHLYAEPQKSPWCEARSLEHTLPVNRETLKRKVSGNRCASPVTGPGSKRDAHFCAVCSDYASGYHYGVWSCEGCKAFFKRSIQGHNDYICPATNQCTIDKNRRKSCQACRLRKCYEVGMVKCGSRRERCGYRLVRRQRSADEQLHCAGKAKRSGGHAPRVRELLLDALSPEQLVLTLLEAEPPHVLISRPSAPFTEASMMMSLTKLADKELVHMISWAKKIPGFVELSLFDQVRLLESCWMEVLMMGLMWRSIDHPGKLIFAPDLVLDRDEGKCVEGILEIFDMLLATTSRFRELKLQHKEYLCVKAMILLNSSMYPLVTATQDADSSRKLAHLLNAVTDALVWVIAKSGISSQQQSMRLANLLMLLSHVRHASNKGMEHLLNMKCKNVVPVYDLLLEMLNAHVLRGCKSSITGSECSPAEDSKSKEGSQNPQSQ

Estrogen receptor beta [13] = molecular target: T5, Estrogen receptor beta; test: blockers of SRC-3 recruitment to ERβ – biochemical, ELISA, streptavidin-HRP readout, orthogonal assay, confirmation (AID 1060)
Nonstructural protein 1 = Nonstructural protein 1 (Influenza A virus, UniProt Q194T2); assay type: functional, Influenza A virus (A/California/07/2009(H1N1))
Chain of Nonstructural protein 1 (Q194T2 whole entry): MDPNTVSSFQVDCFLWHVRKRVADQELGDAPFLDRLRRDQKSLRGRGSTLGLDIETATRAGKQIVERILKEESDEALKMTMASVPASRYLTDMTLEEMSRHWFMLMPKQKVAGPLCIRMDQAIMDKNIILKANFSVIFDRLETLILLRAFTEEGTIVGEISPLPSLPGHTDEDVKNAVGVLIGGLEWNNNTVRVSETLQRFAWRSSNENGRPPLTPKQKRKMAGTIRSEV

cells = assay type: functional, cell-based
[14] = molecular target: T6, Nuclear receptor subfamily 0 group B member 1 (Homo sapiens, UniProt P51843); assay type: functional, cell-based;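 further: HEK293T cells transfected with SF-1 and DAX-1 plus StAR promoter luciferase reporter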
T6 sequence (P51843 whole entry): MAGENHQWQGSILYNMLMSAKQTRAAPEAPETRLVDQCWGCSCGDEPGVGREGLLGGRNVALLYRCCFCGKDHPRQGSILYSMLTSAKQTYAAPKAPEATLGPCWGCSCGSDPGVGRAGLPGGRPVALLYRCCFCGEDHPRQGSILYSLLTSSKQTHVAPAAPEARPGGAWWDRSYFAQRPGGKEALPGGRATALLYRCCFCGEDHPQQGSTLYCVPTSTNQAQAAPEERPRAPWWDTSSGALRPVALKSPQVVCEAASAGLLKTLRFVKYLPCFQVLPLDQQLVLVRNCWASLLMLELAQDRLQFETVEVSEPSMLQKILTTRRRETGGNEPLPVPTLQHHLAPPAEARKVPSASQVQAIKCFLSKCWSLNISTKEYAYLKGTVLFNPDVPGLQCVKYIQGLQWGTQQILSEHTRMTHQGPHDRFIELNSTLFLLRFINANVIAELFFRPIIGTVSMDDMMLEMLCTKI

Protein Tat = Protein Tat (Human immunodeficiency virus type 1 group M subtype B (isolate HXB2)(HIV-1), UniProt P04608); assay type: functional;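 further: tat binding to TAR RNA read out by fluorescence polarization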
Chain of Protein Tat (P04608 whole entry): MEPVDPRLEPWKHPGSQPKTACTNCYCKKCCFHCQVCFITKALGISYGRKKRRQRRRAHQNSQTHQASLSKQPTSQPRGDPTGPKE

[15] = molecular target: Glutathione-S-transferase (Schistosoma japonicum, UniProt Q26513); test: GST-antibody interaction or FRET quenching – biochemical, TR-FRET, artefact control for Vif-APOBEC3G degradation inhibitor project, dose response (AID 1117362); assay type: functional
Chain of Glutathione-S-transferase (Q26513 whole entry): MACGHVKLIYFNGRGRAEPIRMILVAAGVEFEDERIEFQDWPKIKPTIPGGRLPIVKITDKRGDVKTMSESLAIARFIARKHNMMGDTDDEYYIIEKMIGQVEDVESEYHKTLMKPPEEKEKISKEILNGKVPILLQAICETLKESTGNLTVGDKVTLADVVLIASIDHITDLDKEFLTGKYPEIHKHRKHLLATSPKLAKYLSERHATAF

For `Cc1ccc(NC(=O)CSc2nnc(C)c(=O)[nH]2)cc1C`, the IC50 (Leucine aminopeptidase) was 3.51 µM (active), the IC50 (Aspartyl aminopeptidase) was > 73.5 µM (not active) and the IC50 (Procathepsin L) was > 59.6 µM (not active).
With `CC(=O)Nc1ccc(SCC(=O)c2cc(C)n(CCc3cccs3)c2C)cc1` the EC50 [1] was 2 µM (active).
In the case of `CCCNC(=O)N1[C@H](C#N)[C@H](c2ccc(C#Cc3ccc(F)cc3)cc2)[C@H]1CO`, the AC50 [2] is reported as 24.7 µM (active), the AC50 [3] is reported as 7.89 µM (active) and the AC50 [4] is reported as 22.3 µM (active). The AC50 [5] was < 0.3 µM (active), the AC50 [6] was 0.016 µM (active) and the AC50 [7] was 0.00982 µM (active). The AC50 [8] was 0.0156 µM (active).
In the case of `CCOc1ccc(S(=O)(=O)N(CC(=O)N/N=C/c2ccc(-c3ccc([N+](=O)[O-])cc3)o2)c2ccccc2)cc1`, the IC50 (Genome polyprotein) is reported as > 49.8 µM (not active), the IC50 [9] is reported as 36.4 µM (active) and the IC50 [10] is reported as 15.8 µM (not active). For the same compound, the IC50 (Ephrin type-A receptor 4) was 45.6 µM (active).
For `Cc1cc(-c2nnc3sc(-c4ccc(Cl)cc4Cl)nn23)n[nH]1`, the EC50 (Estrogen receptor) was 15.4 µM (active).
In the case of `O=C(Cn1cnc2c(nnn2Cc2ccc(F)cc2)c1=O)N1CCCc2ccccc21`, the IC50 [11] is reported as 1.3 µM (active).
In the case of `Cc1ccc(-c2nnc(CSc3nc4cc5c(cc4cc3C)OCO5)o2)cc1`, the IC50 (Estrogen receptor beta [12]) is reported as > 50 µM (not active) and the IC50 (Estrogen receptor beta [13]) is reported as 0.0359 µM (not active).
For `CCCn1cnc2cc(NCc3ccccn3)ccc21`, the IC50 (Nonstructural protein 1) was > 100 µM (active), the IC50 (cells) was > 67.5 µM (inactive) and the IC50 [14] was > 67.5 µM (inactive). The IC50 (Protein Tat) was > 100 µM (active) and the IC50 [15] was > 100 µM (active).
